Source: US8435980B2 (AbbVie Inc., priority 2009, dated 2013)

Target: T1, Cdc7 (BEV coexpressed huCDC7/DBF4) (Homo sapiens, UniProt O00311)
T1 construct: made in house; host or cells: BEV (baculovirus expression vector) co-expression; insect cells are implied but no cell line is named
Test: Cdc7 enzyme inhibition assay ([33P]ATP, biotinylated peptide substrate, FlashPlate)
Format: biochemical
Details: Table 3; enzyme inhibition data (Ki)
Protocol: Cdc7 (BEV coexpressed huCDC7/DBF4) is prepared internally. Cdc7 assays are conducted as follows with final concentrations as listed. […] Reactions are quenched after 1 hr by the addition of 90 μL stop buffer (50 mM EDTA, 2M NaCl). […] (Ki) for exemplary compounds.

T1 sequence (O00311 whole entry): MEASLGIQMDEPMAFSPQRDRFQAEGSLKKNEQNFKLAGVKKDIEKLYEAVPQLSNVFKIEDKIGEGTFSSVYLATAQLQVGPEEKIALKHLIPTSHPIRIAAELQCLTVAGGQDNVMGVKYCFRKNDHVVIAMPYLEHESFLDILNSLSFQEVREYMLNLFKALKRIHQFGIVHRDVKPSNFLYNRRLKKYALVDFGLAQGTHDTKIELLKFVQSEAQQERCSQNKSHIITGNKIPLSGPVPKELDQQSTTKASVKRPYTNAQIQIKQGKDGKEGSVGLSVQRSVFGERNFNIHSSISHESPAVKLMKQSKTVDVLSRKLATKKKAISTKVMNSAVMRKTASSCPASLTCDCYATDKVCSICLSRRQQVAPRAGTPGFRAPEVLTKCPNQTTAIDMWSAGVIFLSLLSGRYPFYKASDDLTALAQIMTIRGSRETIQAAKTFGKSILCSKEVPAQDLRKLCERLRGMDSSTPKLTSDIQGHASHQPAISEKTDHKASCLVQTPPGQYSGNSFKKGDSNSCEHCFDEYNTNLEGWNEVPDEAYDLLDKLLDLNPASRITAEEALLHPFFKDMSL
T1 sequence (Q9UBU7 whole entry partner): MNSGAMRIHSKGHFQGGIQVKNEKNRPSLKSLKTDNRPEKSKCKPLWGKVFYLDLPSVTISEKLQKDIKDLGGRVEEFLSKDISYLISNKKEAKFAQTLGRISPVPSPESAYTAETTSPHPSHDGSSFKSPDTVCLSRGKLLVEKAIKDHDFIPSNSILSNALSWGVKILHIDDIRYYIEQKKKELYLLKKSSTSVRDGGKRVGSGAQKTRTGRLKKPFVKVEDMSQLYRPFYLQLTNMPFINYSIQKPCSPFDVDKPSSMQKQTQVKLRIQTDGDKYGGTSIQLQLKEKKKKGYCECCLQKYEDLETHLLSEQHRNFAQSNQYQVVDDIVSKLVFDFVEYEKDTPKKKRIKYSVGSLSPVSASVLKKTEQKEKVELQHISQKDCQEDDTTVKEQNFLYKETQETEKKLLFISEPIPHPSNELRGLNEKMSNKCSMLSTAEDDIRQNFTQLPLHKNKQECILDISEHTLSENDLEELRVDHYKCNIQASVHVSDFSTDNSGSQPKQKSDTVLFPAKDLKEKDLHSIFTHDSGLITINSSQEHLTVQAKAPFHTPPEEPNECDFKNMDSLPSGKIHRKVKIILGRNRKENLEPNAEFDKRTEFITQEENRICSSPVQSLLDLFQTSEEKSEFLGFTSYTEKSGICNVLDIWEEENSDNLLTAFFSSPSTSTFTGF

| Compound | Ki [nM] |
| --- | --- |
| N[C@H]1CC[C@H](Nc2cc(-c3c[nH]c4ncc(OCCc5ccccn5)cc34)cc(Cl)n2)CC1 [Example 427, trans-N-(6-chloro-4-{5-[2-(pyridin-2-yl)ethoxy]-1H-pyrrolo[2,3-b]pyridin-3-yl}pyridin-2-yl)cyclohexane-1,4-diamine] | < 10 |
| CC(C)COc1cnc2[nH]cc(-c3cc(Cl)nc(N[C@H]4CC[C@H](N)CC4)c3)c2c1 [Example 428, trans-N-{6-chloro-4-[5-(2-methylpropoxy)-1H-pyrrolo[2,3-b]pyridin-3-yl]pyridin-2-yl}cyclohexane-1,4-diamine] | < 10 |
| O=C(N[C@H]1CC[C@H](Nc2cc(-c3c[nH]c4ncccc34)cc(Cl)n2)CC1)C1CN(Cc2ccccn2)C1 [Example 429, N-(trans-4-{[6-chloro-4-(1H-pyrrolo[2,3-b]pyridin-3-yl)pyridin-2-yl]amino}cyclohexyl)-1-(pyridin-2-ylmethyl)azetidine-3-carboxamide] | < 10 |
| COc1cnc2[nH]cc(-c3cc(Cl)nc(N[C@H]4CC[C@H](NC(=O)C(F)(F)F)CC4)c3)c2c1 [Example 430, N-(trans-4-{[6-chloro-4-(5-methoxy-1H-pyrrolo[2,3-b]pyridin-3-yl)pyridin-2-yl]amino}cyclohexyl)-2,2,2-trifluoroacetamide] | < 10 |
| COc1ccc(-c2cnc3[nH]cc(-c4cc(Cl)nc(NC5CCCCC5)c4)c3c2)cn1 [Example 431, 6-chloro-N-cyclohexyl-4-[5-(6-methoxypyridin-3-yl)-1H-pyrrolo[2,3-b]pyridin-3-yl]pyridin-2-amine] | < 10 |
| CCN(CCO)CC(=O)N[C@H]1CC[C@H](Nc2cc(-c3c[nH]c4ncc(OC)cc34)cc(Cl)n2)CC1 [Example 432, N-(trans-4-{[6-chloro-4-(5-methoxy-1H-pyrrolo[2,3-b]pyridin-3-yl)pyridin-2-yl]amino}cyclohexyl)-N~2~-ethyl-N~2~-(2-hydroxyethyl)glycinamide] | < 10 |
| COc1cnc2[nH]cc(-c3cc(Cl)nc(N[C@H]4CC[C@H](NC(=O)CNCCO)CC4)c3)c2c1 [Example 433, N-(trans-4-{[6-chloro-4-(5-methoxy-1H-pyrrolo[2,3-b]pyridin-3-yl)pyridin-2-yl]amino}cyclohexyl)-N~2~-(2-hydroxyethyl)glycinamide] | < 10 |
| CN(C)c1ccc(Nc2cc(-c3c[nH]c4ncccc34)cc(Cl)n2)cc1 [Example 434, N′-[6-chloro-4-(1H-pyrrolo[2,3-b]pyridin-3-yl)pyridin-2-yl]-N,N-dimethylbenzene-1,4-diamine] | < 10 |
| Clc1cc(-c2c[nH]c3ncccc23)cc(Nc2ccc3c(c2)CCC3)n1 [Example 435, 6-chloro-N-(2,3-dihydro-1H-inden-5-yl)-4-(1H-pyrrolo[2,3-b]pyridin-3-yl)pyridin-2-amine] | < 10 |
| Clc1cc(-c2c[nH]c3ncccc23)cc(Nc2ccc3c(c2)OCCO3)n1 [Example 436, 6-chloro-N-(2,3-dihydro-1,4-benzodioxin-6-yl)-4-(1H-pyrrolo[2,3-b]pyridin-3-yl)pyridin-2-amine] | < 10 |
| Clc1cc(-c2c[nH]c3ncccc23)cc(Nc2ccc(N3CCOCC3)cc2)n1 [Example 438, 6-chloro-N-[4-(morpholin-4-yl)phenyl]-4-(1H-pyrrolo[2,3-b]pyridin-3-yl)pyridin-2-amine] | < 10 |
| Clc1cc(-c2c[nH]c3ncccc23)cc(Nc2cccc3c2CCCC3)n1 [Example 439, 6-chloro-4-(1H-pyrrolo[2,3-b]pyridin-3-yl)-N-(5,6,7,8-tetrahydronaphthalen-1-yl)pyridin-2-amine] | < 10 |
| CC(C)(C)c1ccc(Nc2cc(-c3c[nH]c4ncccc34)cc(Cl)n2)cc1 [Example 440, N-(4-tert-butylphenyl)-6-chloro-4-(1H-pyrrolo[2,3-b]pyridin-3-yl)pyridin-2-amine] | < 10 |
| Clc1cc(-c2c[nH]c3ncccc23)cc(Nc2cccc3c2CCC3)n1 [Example 441, 6-chloro-N-(2,3-dihydro-1H-inden-4-yl)-4-(1H-pyrrolo[2,3-b]pyridin-3-yl)pyridin-2-amine] | < 10 |
| Clc1cc(-c2c[nH]c3ncccc23)cc(Nc2ccc3ncccc3c2)n1 [Example 442, N-[6-chloro-4-(1H-pyrrolo[2,3-b]pyridin-3-yl)pyridin-2-yl]quinolin-6-amine] | < 10 |
| CN1CCN(c2ccc(Nc3cc(-c4c[nH]c5ncccc45)cc(Cl)n3)cc2)CC1 [Example 443, 6-chloro-N-[4-(4-methylpiperazin-1-yl)phenyl]-4-(1H-pyrrolo[2,3-b]pyridin-3-yl)pyridin-2-amine] | < 10 |
| O=S1(=O)CCN(c2ccc(Nc3cc(-c4c[nH]c5ncccc45)cc(Cl)n3)cc2)CC1 [Example 444, 6-chloro-N-[4-(1,1-dioxidothiomorpholin-4-yl)phenyl]-4-(1H-pyrrolo[2,3-b]pyridin-3-yl)pyridin-2-amine] | < 10 |

| Compound | Ki [nM] |
| --- | --- |
| COc1cnc2[nH]cc(-c3cc(Cl)nc(N[C@H]4CC[C@H](NC(=O)CN[C@H]5CC[C@H](O)CC5)CC4)c3)c2c1 [Example 445, N-(trans-4-{[6-chloro-4-(5-methoxy-1H-pyrrolo[2,3-b]pyridin-3-yl)pyridin-2-yl]amino}cyclohexyl)-N~2~-(trans-4-hydroxycyclohexyl)glycinamide] | < 10 |
| COc1cnc2[nH]cc(-c3cc(Cl)nc(N[C@H]4CC[C@H](NC(=O)CNC(C)C)CC4)c3)c2c1 [Example 446, N-(trans-4-{[6-chloro-4-(5-methoxy-1H-pyrrolo[2,3-b]pyridin-3-yl)pyridin-2-yl]amino}cyclohexyl)-N~2~-propan-2-ylglycinamide] | < 10 |
| COc1cnc2[nH]cc(-c3cc(Cl)nc(NC4CCC(CC5CCC(NS(=O)(=O)c6c(C)noc6C)CC5)CC4)c3)c2c1 (stereo not drawn) [Example 447, N-{4-[(4-{[6-chloro-4-(5-methoxy-1H-pyrrolo[2,3-b]pyridin-3-yl)pyridin-2-yl]amino}cyclohexyl)methyl]cyclohexyl}-3,5-dimethyl-1,2-oxazole-4-sulfonamide] | < 10 |
| COc1cnc2[nH]cc(-c3cc(Cl)nc(NC4CCCC(NC(=O)CN(C)C)C4)c3)c2c1 (stereo not drawn) [Example 448, N-(3-{[6-chloro-4-(5-methoxy-1H-pyrrolo[2,3-b]pyridin-3-yl)pyridin-2-yl]amino}cyclohexyl)-N~2~,N~2~-dimethylglycinamide] | < 10 |
| Clc1cc(-c2c[nH]c3ncccc23)cc(Nc2ccc(N3CCN(Cc4ccccn4)CC3)cc2)n1 [Example 449, 6-chloro-N-{4-[4-(pyridin-2-ylmethyl)piperazin-1-yl]phenyl}-4-(1H-pyrrolo[2,3-b]pyridin-3-yl)pyridin-2-amine] | < 10 |
| Clc1cc(-c2c[nH]c3ncccc23)cc(Nc2ccc(N3CCN(CC4CCCCC4)CC3)cc2)n1 [Example 450, 6-chloro-N-{4-[4-(cyclohexylmethyl)piperazin-1-yl]phenyl}-4-(1H-pyrrolo[2,3-b]pyridin-3-yl)pyridin-2-amine] | < 10 |
| CC(C)CN1CCN(c2ccc(Nc3cc(-c4c[nH]c5ncccc45)cc(Cl)n3)cc2)CC1 [Example 451, 6-chloro-N-{4-[4-(2-methylpropyl)piperazin-1-yl]phenyl}-4-(1H-pyrrolo[2,3-b]pyridin-3-yl)pyridin-2-amine] | < 10 |
| Nc1ccc(-c2cnc3[nH]cc(-c4cc(Cl)nc(N[C@H]5CC[C@H](NS(=O)(=O)C6CC6)CC5)c4)c3c2)cn1 [Example 452, N-[trans-4-({4-[5-(6-aminopyridin-3-yl)-1H-pyrrolo[2,3-b]pyridin-3-yl]-6-chloropyridin-2-yl}amino)cyclohexyl]cyclopropanesulfonamide] | < 10 |
| O=S(=O)(N[C@H]1CC[C@H](Nc2cc(-c3c[nH]c4ncc(-c5cccnc5)cc34)cc(Cl)n2)CC1)C1CC1 [Example 453, N-[trans-4-({6-chloro-4-[5-(pyridin-3-yl)-1H-pyrrolo[2,3-b]pyridin-3-yl]pyridin-2-yl}amino)cyclohexyl]cyclopropanesulfonamide] | < 10 |
| NS(=O)(=O)c1cccc(-c2cnc3[nH]cc(-c4cc(Cl)nc(N[C@H]5CC[C@H](NS(=O)(=O)C6CC6)CC5)c4)c3c2)c1 [Example 454, 3-{3-[2-chloro-6-({trans-4-[(cyclopropylsulfonyl)amino]cyclohexyl}amino)pyridin-4-yl]-1H-pyrrolo[2,3-b]pyridin-5-yl}benzenesulfonamide] | < 10 |
| O=S(=O)(N[C@H]1CC[C@H](Nc2cc(-c3c[nH]c4ncc(-c5cncnc5)cc34)cc(Cl)n2)CC1)C1CC1 [Example 455, N-[trans-4-({6-chloro-4-[5-(pyrimidin-5-yl)-1H-pyrrolo[2,3-b]pyridin-3-yl]pyridin-2-yl}amino)cyclohexyl] cyclopropanesulfonamide] | < 10 |
| C[C@@H](Nc1nc(Cl)cc(-c2c[nH]c3ncccc23)n1)c1ccccc1 [Example 456, 4-chloro-N-[(1R)-1-phenylethyl]-6-(1H-pyrrolo[2,3-b]pyridin-3-yl)pyrimidin-2-amine] | < 10 |
| Oc1cccc(CNc2nc(Cl)cc(-c3c[nH]c4ncccc34)n2)c1 [Example 457, 3-({[4-chloro-6-(1H-pyrrolo[2,3-b]pyridin-3-yl)pyrimidin-2-yl]amino}methyl)phenol] | < 10 |
| Oc1ccc(CNc2nc(Cl)cc(-c3c[nH]c4ncccc34)n2)cc1 [Example 458, 4-({[4-chloro-6-(1H-pyrrolo[2,3-b]pyridin-3-yl)pyrimidin-2-yl]amino}methyl)phenol] | < 10 |
| CN(C)C1CCC(Nc2nc(Cl)cc(-c3c[nH]c4ncccc34)n2)CC1 (stereo not drawn) [Example 459, N′-[4-chloro-6-(1H-pyrrolo[2,3-b]pyridin-3-yl)pyrimidin-2-yl]-N,N-dimethylcyclohexane-1,4-diamine] | < 10 |
| NC1CCC(CC2CCC(Nc3nc(Cl)cc(-c4c[nH]c5ncccc45)n3)CC2)CC1 (stereo not drawn) [Example 465, N-{4-[(4-aminocyclohexyl)methyl]cyclohexyl}-4-chloro-6-(1H-pyrrolo[2,3-b]pyridin-3-yl)pyrimidin-2-amine] | < 10 |
